# Data from paper PMC2010749, “Cytotoxic and clastogenic effects of soluble and insoluble compounds containing hexavalent and trivalent chromium” (British Journal of Cancer, 1981).
# Where two headings read alike, the source gives them in different places.
# Tests used:
# [1] = test system: BHK 21 Syrian hamster fibroblast line; experiment: DNA, RNA and protein syntheses in BHK monolayers exposed to filtered medium preincubated with Cr compounds; assay type: cell-based; conditions: cells exposed 24 h;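 also: DNA, RNA and protein synthesis in BHK cultures assessed by incorporation of labelled precursors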
# Description: (§1) Cell growth and labelling.-The reduction in cell growth, based on the nucleic acid content (DNA + RNA) of treated cultures, and the inhibition of DNA, RNA and protein syn- thesis, based on the incorporation of labelled precursors, were determined, to evaluate the cytotoxic effects of Cr compounds in BHK cell cultures. […] Three to four thousand cells were then examined for each dose level and each time interval, and the mitotic index (the ratio of all mitoses to the total number of cells) and the frequencies of each mitotic phase (the ratios of cells in each phase to total mitoses) were determined. […] Chromium compounds and cell treatments.- The tested compounds of Cr(VI) and Cr(III) and their physico-chemical properties are listed in Table I. In many experiments in which most of them were highly insoluble or only partially soluble (see Tables I, IV, V), Cr compounds were directly suspended in the growth medium used for treatments. […] The cytotoxic and clastogenic effects were usually deter- mined just at the end of Cr treatments, but sometimes the treated cells were washed with HBSS and incubated with normal growth medium, so that the effects of Cr were deter- mined at different times after the end of treatment (see Fig. 3 and Table VII).
# [2] = test system: HEp-2 human epithelial-like line; conditions: 2 h exposure to medium preincubated 2 days with 0.5 mg/ml in presence of BHK cells
# Description: as §1
# [3] = test system: CHO Chinese hamster fibroblast line; conditions: 0.1 µg/ml water-soluble Cr(VI) (0.3 µg/ml of salt)
# Description: Cell growth and labelling.-The reduction in cell growth, based on the nucleic acid content (DNA + RNA) of treated cultures, and the inhibition of DNA, RNA and protein syn- thesis, based on the incorporation of labelled precursors, were determined, to evaluate the cytotoxic effects of Cr compounds in BHK cell cultures. […] Three to four thousand cells were then examined for each dose level and each time interval, and the mitotic index (the ratio of all mitoses to the total number of cells) and the frequencies of each mitotic phase (the ratios of cells in each phase to total mitoses) were determined. […] Chromium compounds and cell treatments.- The tested compounds of Cr(VI) and Cr(III) and their physico-chemical properties are listed in Table I. In many experiments in which most of them were highly insoluble or only partially soluble (see Tables I, IV, V), Cr compounds were directly suspended in the growth medium used for treatments. In the experiments on the induction of chromosome aberrations and SCE in CHO cells, almost complete solubilization was obtained in N HCI for Cr(III) compounds and 0-5N NaOH for Cr(VI) compounds, after which they were diluted with MEM to the final concentrations specified in Table IX. […]
# [4] = test system: CHO Chinese hamster fibroblast line; experiment: Cell growth of CHO cultures (DNA + RNA content); assay type: cell-based; conditions: 32 h in MEM; 0.3 µg/ml
# Description: as §1
# [5] = test system: BHK 21 Syrian hamster fibroblast line; experiment: Cell growth of BHK cultures (DNA + RNA content), Cr compounds added directly to medium; assay type: cell-based; conditions: 48 h in MEM; 0.5/0.15/0.05 mg/ml (one value for all three)
# Description: (§2) Cell growth and labelling.-The reduction in cell growth, based on the nucleic acid content (DNA + RNA) of treated cultures, and the inhibition of DNA, RNA and protein syn- thesis, based on the incorporation of labelled precursors, were determined, to evaluate the cytotoxic effects of Cr compounds in BHK cell cultures. […] Three to four thousand cells were then examined for each dose level and each time interval, and the mitotic index (the ratio of all mitoses to the total number of cells) and the frequencies of each mitotic phase (the ratios of cells in each phase to total mitoses) were determined. […] Chromium compounds and cell treatments.- The tested compounds of Cr(VI) and Cr(III) and their physico-chemical properties are listed in Table I. In many experiments in which most of them were highly insoluble or only partially soluble (see Tables I, IV, V), Cr compounds were directly suspended in the growth medium used for treatments. In the experiments on the induction of chromosome aberrations and SCE in CHO cells, almost complete solubilization was obtained in N HCI for Cr(III) compounds and 0-5N NaOH for Cr(VI) compounds, after which they were diluted with MEM to the final concentrations specified in Table IX. […] The cytotoxic and clastogenic effects were usually deter- mined just at the end of Cr treatments, but sometimes the treated cells were washed with HBSS and incubated with normal growth medium, so that the effects of Cr were deter- mined at different times after the end of treatment (see Fig. 3 and Table VII).
# [6] = test system: BHK 21 Syrian hamster fibroblast line; experiment: DNA, RNA and protein syntheses in BHK cells, Cr compounds added directly to medium; assay type: cell-based; conditions: 48 h in MEM; 0.5/0.15/0.05 mg/ml (one value for all three)
# Description: as §1
# [7] = Solubility of chromium compounds (Table I)
# Description: as §2
# [8] = test system: BHK 21 Syrian hamster fibroblast line; conditions: range in 4 experiments
# Description: as §1
# [9] = preincubated 48 h with 0.05 mg/ml
# [10] = preincubated 48 h with 0.15 mg/ml
# [11] = preincubated 48 h with 0.5 mg/ml
smiles,measurement,setting,value
[K+].[K+].[O]=[Cr](=[O])([O-])[O][Cr](=[O])(=[O])[O-] [Potassium dichromate],"DNA synthesis, preinc. in MEM",[1]; [9],24 % of controls
same,"DNA synthesis, preinc. in MEM+BHK",[1]; [9],35 % of controls
same,"Protein synthesis, preinc. in MEM",[1]; [9],100 % of controls
same,"Protein synthesis, preinc. in MEM+BHK",[1]; [9],100 % of controls
same,"RNA synthesis, preinc. in MEM",[1]; [9],90 % of controls
same,"RNA synthesis, preinc. in MEM+BHK",[1]; [9],100 % of controls
same,"DNA synthesis, preinc. in MEM",[1]; [10],4 % of controls
same,"DNA synthesis, preinc. in MEM+BHK",[1]; [10],16 % of controls
same,"Protein synthesis, preinc. in MEM",[1]; [10],68 % of controls
same,"Protein synthesis, preinc. in MEM+BHK",[1]; [10],100 % of controls
same,"RNA synthesis, preinc. in MEM",[1]; [10],42 % of controls
same,"RNA synthesis, preinc. in MEM+BHK",[1]; [10],64 % of controls
same,"DNA synthesis, preinc. in MEM",[1]; [11],4 % of controls
same,"DNA synthesis, preinc. in MEM+BHK",[1]; [11],7 % of controls
same,"Protein synthesis, preinc. in MEM",[1]; [11],52 % of controls
same,"Protein synthesis, preinc. in MEM+BHK",[1]; [11],69 % of controls
same,"RNA synthesis, preinc. in MEM",[1]; [11],39 % of controls
same,"RNA synthesis, preinc. in MEM+BHK",[1]; [11],49 % of controls
same,Mitotic block (% increase of abnormal metaphases 2-4 h after treatment),[2],+++ (+ + + (> 100%))
same,"Mitotic inhibition, early (% reduction of normal prophases at the end of treatment)",[2],+++ (+ + + (> 70%))
same,"Mitotic inhibition, late (% reduction of normal prophases 24 h after treatment)",[2],+++ (+ + + (> 70%))
same,Caryological alterations,[2]; grades not defined,~+
same,Mean number of chromosome aberrations relative to control,[3],2-3 times the control values
same,Cell growth,[4],83 % control
same,Cell growth,[5],0 % of controls
same,DNA synthesis,[6],0 % of controls
same,Protein synthesis,[6],0 % of controls
same,RNA synthesis,[6],0 % of controls
same,Solubility in water,[7],High
same,Length of treatment giving 50% inhibition of RNA synthesis,[8]; K2Cr2O7 10 µg/ml in HBSS,1 to 2 h
same,Length of treatment giving 50% inhibition of protein synthesis,[8]; K2Cr2O7 10 µg/ml in HBSS,3 to 5 h
same,Length of treatment giving > 90% inhibition of DNA synthesis,[8]; K2Cr2O7 10 µg/ml in HBSS,2 to 3 h
same,Length of treatment giving > 90% inhibition of RNA synthesis,[8]; K2Cr2O7 10 µg/ml in HBSS,6 to 7 h
same,Length of treatment giving > 90% inhibition of protein synthesis,[8]; K2Cr2O7 10 µg/ml in HBSS,8 to 10 h
same,Length of treatment giving 50% inhibition of DNA synthesis,[8]; K2Cr2O7 10 µg/ml in MEM,0.5 to 1.0 h
same,Length of treatment giving 50% inhibition of RNA synthesis,[8]; K2Cr2O7 10 µg/ml in MEM,2 to 4 h
same,Length of treatment giving 50% inhibition of protein synthesis,[8]; K2Cr2O7 10 µg/ml in MEM,5 to 9 h
same,Length of treatment giving > 90% inhibition of DNA synthesis,[8]; K2Cr2O7 10 µg/ml in MEM,2 to 3 h
same,Length of treatment giving > 90% inhibition of RNA synthesis,[8]; K2Cr2O7 10 µg/ml in MEM,> 10 h
same,Length of treatment giving > 90% inhibition of protein synthesis,[8]; K2Cr2O7 10 µg/ml in MEM,> 10 h
same,Length of treatment giving 50% inhibition of DNA synthesis,[8]; K2Cr2O7 100 µg/ml in MEM,0 to 25 h
same,Length of treatment giving 50% inhibition of protein synthesis,[8]; K2Cr2O7 100 µg/ml in MEM,1 to 3 h
same,Length of treatment giving > 90% inhibition of DNA synthesis,[8]; K2Cr2O7 100 µg/ml in MEM,0 to 75 h
same,Length of treatment giving > 90% inhibition of RNA synthesis,[8]; K2Cr2O7 100 µg/ml in MEM,5 to 7 h
same,Length of treatment giving > 90% inhibition of protein synthesis,[8]; K2Cr2O7 100 µg/ml in MEM,6 to 10 h
